According to US20250194600A1, “MESOIONIC ARYLPYRIDAZINIUM DERIVATIVE OR SALT THEREOF AND INSECTICIDAL AGENT CONTAINING THE COMPOUND AND METHOD FOR USING SAME” (NIHON NOHYAKU CO., LTD., priority 2022, published 2025):

Experiments:
[1] = tested on: Western flower thrips (Frankliniella occidentalis); assay: Insecticidal test on western flower thrips, larvae on kidney bean leaf pieces; assay type: in vivo; details: 96 h, hatched larvae on kidney bean leaf pieces, counted 4 days after treatment, read-out: insecticidal efficacy (corrected mortality rate) against western flower thrips
Description: (§1) • A: the mortality rate is 100%. • B: the mortality rate is 90 to 99%. • C: the mortality rate is 80 to 89%. • D: the mortality rate is 50 to 79%. • E: the mortality rate is 0 to 49.
Insecticidal Test on Western flower thrips (Frankliniella occidentalis)
Female adults of western flower thrips were inoculated onto kidney bean leaf pieces, and allowed to lay eggs thereon for one day, then the female adults were removed. After 3 days, the hatched larvae on the leaf pieces were counted, and then the agrochemical dispersions diluted to 50 ppm or 500 ppm, each of which contained the compound described in Tables 1 to 5 as an active ingredient were applied. The number of larvae of the species surviving at 4 days after the treatment was counted, and the corrected mortality rate was calculated according to the formula shown below, and the insecticidal efficacy was evaluated according to the criteria of Test Example 1. This test was conducted in duplicate.

[2] = tested on: Small Brown Planthopper (Laodelphax striatellus); assay: Insecticidal test on small brown planthopper, dip treatment of rice plant seedlings; assay type: in vivo; details: 192 h, rice seedlings dipped 30 seconds, 3rd-instar larvae, counted 8 days after inoculation, read-out: insecticidal efficacy (corrected mortality rate) against small brown planthopper
Description: as §1
Insecticidal Test on Small Brown Planthopper (Laodelphax striatellus)
The compounds represented by the general formula (1) of the present invention or salts thereof were separately dispersed in water and diluted to 50 ppm or 500 ppm. Rice plant seedlings (variety: Nihonbare) were dipped in the agrochemical dispersions for 30 seconds. After air-dried, each seedling was put into a separate glass test tube and inoculated with ten 3rd-instar larvae of small brown planthopper, and then the glass test tubes were capped with cotton plugs. At 8 days after the inoculation, the numbers of surviving larvae and dead larvae were counted, the corrected mortality rate was calculated according to the formula shown below, and the insecticidal efficacy was evaluated according to the criteria of Test Example 1.

O=C(Nc1ccc(F)cc1)c1c([S-])c[n+](-c2ccc(C(F)(F)F)nc2)nc1O [2-1, 4-((4-fluorophenyl)carbamoyl)-3-hydroxy-1-(6-(trifluoromethyl)pyridin-3-yl)pyridazin-1-ium-5-thiolate]
100%: mortality at 50 ppm ([1]; 50 ppm) | mortality at 500 ppm ([1]; 500 ppm) | mortality at 500 ppm [2]
